Assay: recombinant barcode read abundance after kanamycin selection (control-corrected) (log10(CPM+1)); higher = more efficient recombination; sequences stand for … in AGTGCAGAGAAAATCGGCCAGTTTTCTCTGCCTGCAGTCCGCATGCCGT…AGATTTATGCAGCGGACTGCCTTTCTCCCAAAGTGATAAACCGGACAGTATCATGGACCGGTTTTCCCGGTAATCCGTATTTGCAAGGTTGGTTTCACT; site = the 11-nt target
How it was run: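 Pooled oligos, each joining a target to an IS621 bridge RNA target-binding loop, were cloned and co-electroporated with a donor plasmid into E. coli. Selective plates carried chloramphenicol/ampicillin/kanamycin and 0.1 mM IPTG, while chloramphenicol/ampicillin LB agar served as control, with two replicates of each. Recombination efficiency rests on averaged, control-corrected counts per million of barcodes at recombinant junctions, shown as log10(CPM+1).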
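Further: IS621 recombinase and bridge RNA in Escherichia coli cells.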

CCGAATGCTTGGGTTCTAACCTGTTGCCT (site CCGAATGCTAG)
recombinant barcode read abundance (log10): 0.188

CCGAATGCTTGGGTTCTAACCTGTTGCCT (site CCGCATGCTAG)
recombinant barcode read abundance (log10): 0.0438

CCGAATGCTTGGGTTCTAACCTGTTGCCT (site CCGGATGCTAG)
recombinant barcode read abundance (log10): 0.144

CCGAATGCTTGGGTTCTAACCTGTTGCCT (site CCGTATGCTAG)
recombinant barcode read abundance (log10): 0.155

CCGATCACTTGGGTTCTAACCTGTTGCCT (site CCGATCACTAG)
recombinant barcode read abundance (log10): 1.14

CCGATCACTTGGGTTCTAACCTGTTGCCT (site CGTATCACTAG)
recombinant barcode read abundance (log10): 0.034

CCGCAGACTTGGGTTCTAACCTGTTGCTT (site CCGCAGACTAA)
recombinant barcode read abundance (log10): 1.33

CCGCAGACTTGGGTTCTAACCTGTTGCTT (site CCGCGGACTAA)
recombinant barcode read abundance (log10): 0.013

CCGCCCTCTTGGGTTCTAACCTGTTGCTT (site CAGCCCTCTTA)
recombinant barcode read abundance (log10): 0.586

CCGCCCTCTTGGGTTCTAACCTGTTGCTT (site CCGCCCTCTAA)
recombinant barcode read abundance (log10): 0.291

CCGCGCACTTGGGTTCTAACCTGTTGCCT (site CCGCGCACTAG)
recombinant barcode read abundance (log10): 0.397

CCGCGCACTTGGGTTCTAACCTGTTGCCT (site CCGCGCTCTAG)
recombinant barcode read abundance (log10): 0.206

CCGCGTGCTTGGGTTCTAACCTGTTGCCT (site CAGCGTGCTAG)
recombinant barcode read abundance (log10): 0.161

CCGCGTGCTTGGGTTCTAACCTGTTGCCT (site CCGCGTGCTAG)
recombinant barcode read abundance (log10): 0.0933

CCGCGTGCTTGGGTTCTAACCTGTTGCCT (site CGGCGTGCTAG)
recombinant barcode read abundance (log10): 0.523

CCGCGTGCTTGGGTTCTAACCTGTTGCCT (site CTGCGTGCTAG)
recombinant barcode read abundance (log10): 0.0444

CCGCTACCTTGGGTTCTAACCTGTTGCGG (site CCGCTACCTCC)
recombinant barcode read abundance (log10): 0.474

CCGCTACCTTGGGTTCTAACCTGTTGCGG (site TCGCTAGCTCC)
recombinant barcode read abundance (log10): 0.0965

CCGTATGCTTGGGTTCTAACCTGTTGCCT (site CCGAATGCTAG)
recombinant barcode read abundance (log10): 0.234

CCGTATGCTTGGGTTCTAACCTGTTGCCT (site CCGCATGCTAG)
recombinant barcode read abundance (log10): 0.104

CCGTATGCTTGGGTTCTAACCTGTTGCCT (site CCGGATGCTAG)
recombinant barcode read abundance (log10): 0.0205

CCGTATGCTTGGGTTCTAACCTGTTGCCT (site CCGTATGCTAG)
recombinant barcode read abundance (log10): 0.168

CCGTCACCTTGGGTTCTAACCTGTTGCCT (site ACGTCACCTAG)
recombinant barcode read abundance (log10): 0.264

CCGTCACCTTGGGTTCTAACCTGTTGCCT (site CCGTCACCTAG)
recombinant barcode read abundance (log10): 1.29

CCGTCACCTTGGGTTCTAACCTGTTGCCT (site GCGTCACCTAG)
recombinant barcode read abundance (log10): 0.0965

CCGTCACCTTGGGTTCTAACCTGTTGCCT (site TCGTCACCTAG)
recombinant barcode read abundance (log10): 0.0881

CCGTCCTCTTGGGTTCTAACCTGTTGCTG (site CAGTCCTCTCA)
recombinant barcode read abundance (log10): 0.0234

CCGTCCTCTTGGGTTCTAACCTGTTGCTG (site CCGTCCTCTCA)
recombinant barcode read abundance (log10): 1.01

CCGTCGACTTGGGTTCTAACCTGTTGCCT (site ACGTCCACTAG)
recombinant barcode read abundance (log10): 0.0141

CCGTCGACTTGGGTTCTAACCTGTTGCCT (site CCGTCGACTAG)
recombinant barcode read abundance (log10): 0.197

CCGTCTACTTGGGTTCTAACCTGTTGCTG (site CCGTCTACTAA)
recombinant barcode read abundance (log10): 0.019

CCGTCTACTTGGGTTCTAACCTGTTGCTG (site CCGTCTACTCA)
recombinant barcode read abundance (log10): 0.38

CCGTCTACTTGGGTTCTAACCTGTTGCTG (site CCGTCTACTGA)
recombinant barcode read abundance (log10): 0.0602

CCGTCTACTTGGGTTCTAACCTGTTGCTG (site CCGTCTACTTA)
recombinant barcode read abundance (log10): 0.111

CCGTGGACTTGGGTTCTAACCTGTTGCCT (site CCGTGGACTAG)
recombinant barcode read abundance (log10): 1.75

CCGTGGACTTGGGTTCTAACCTGTTGCCT (site CCGTGGCCTAA)
recombinant barcode read abundance (log10): 0.254

CCTAAGACTTGGGTTCTAACCTGTTGCCG (site CCTAAGACTAG)
recombinant barcode read abundance (log10): 0.343

CCTAAGACTTGGGTTCTAACCTGTTGCCG (site CCTAAGACTCG)
recombinant barcode read abundance (log10): 0.263

CCTAAGACTTGGGTTCTAACCTGTTGCCG (site CCTAAGACTGG)
recombinant barcode read abundance (log10): 0.148

CCTAAGACTTGGGTTCTAACCTGTTGCCG (site CCTAAGACTTG)
recombinant barcode read abundance (log10): 0.0897

CCTAATGCTTGGGTTCTAACCTGTTGCCT (site CCAAAGGCTAG)
recombinant barcode read abundance (log10): 0.0782

CCTAATGCTTGGGTTCTAACCTGTTGCCT (site CCTAATGCTAG)
recombinant barcode read abundance (log10): 0.0345

CCTACCGCTTGGGTTCTAACCTGTTGCTT (site CCTACCGCTAA)
recombinant barcode read abundance (log10): 0.424

CCTACCGCTTGGGTTCTAACCTGTTGCTT (site CGTACCGCTAG)
recombinant barcode read abundance (log10): 0.0456

CCTCACTCTTGGGTTCTAACCTGTTGCGG (site CCTCACTCTCC)
recombinant barcode read abundance (log10): 1.66

CCTCACTCTTGGGTTCTAACCTGTTGCGG (site CCTCAGTCTTC)
recombinant barcode read abundance (log10): 0

CCTCGCACTTGGGTTCTAACCTGTTGCCT (site CATCGCACTAG)
recombinant barcode read abundance (log10): 0.0533

CCTCGCACTTGGGTTCTAACCTGTTGCCT (site CCTCGCACTAG)
recombinant barcode read abundance (log10): 0.458

CCTCGCACTTGGGTTCTAACCTGTTGCCT (site CGTCGCACTAG)
recombinant barcode read abundance (log10): 0.133

CCTCGCACTTGGGTTCTAACCTGTTGCCT (site CTTCGCACTAG)
recombinant barcode read abundance (log10): 0.0293

CCTCGGGCTTGGGTTCTAACCTGTTGCAG (site CATCGGGCTCT)
recombinant barcode read abundance (log10): 0.0896

CCTCGGGCTTGGGTTCTAACCTGTTGCAG (site CCTCGGGCTCT)
recombinant barcode read abundance (log10): 1.23

CCTCGGGCTTGGGTTCTAACCTGTTGCAG (site CGTCGGGCTCT)
recombinant barcode read abundance (log10): 0.011

CCTCGGGCTTGGGTTCTAACCTGTTGCAG (site CTTCGGGCTCT)
recombinant barcode read abundance (log10): 0.101

CCTGACTCTTGGGTTCTAACCTGTTGCAC (site CCTGACTCTGT)
recombinant barcode read abundance (log10): 2.05

CCTGACTCTTGGGTTCTAACCTGTTGCAC (site GAACTGCCTAA)
recombinant barcode read abundance (log10): 0.0359

CCTGACTCTTGGGTTCTAACCTGTTGCAT (site CCTGACTCTAT)
recombinant barcode read abundance (log10): 2.19

CCTGACTCTTGGGTTCTAACCTGTTGCAT (site TAGTGGCCTTA)
recombinant barcode read abundance (log10): 0.221

CCTGAGACTTGGGTTCTAACCTGTTGCAG (site CCTGAGACTCT)
recombinant barcode read abundance (log10): 1.37

CCTGAGACTTGGGTTCTAACCTGTTGCAG (site CCTGGCACTCT)
recombinant barcode read abundance (log10): 0.297

CCTGCGACTTGGGTTCTAACCTGTTGCAC (site AAGCACCCTCA)
recombinant barcode read abundance (log10): 0.185

CCTGCGACTTGGGTTCTAACCTGTTGCAC (site CCTGCGACTGT)
recombinant barcode read abundance (log10): 0.219

CCTGCGGCTTGGGTTCTAACCTGTTGCCT (site CCTGCGACTAG)
recombinant barcode read abundance (log10): 0.0127

CCTGCGGCTTGGGTTCTAACCTGTTGCCT (site CCTGCGGCTAG)
recombinant barcode read abundance (log10): 0.15

CCTGGAACTTGGGTTCTAACCTGTTGCTT (site CCTGGAACTAA)
recombinant barcode read abundance (log10): 0.418

CCTGGAACTTGGGTTCTAACCTGTTGCTT (site CCTGGAGCTAT)
recombinant barcode read abundance (log10): 0.333

CCTGGACCTTGGGTTCTAACCTGTTGCGT (site CCTGGACCTAC)
recombinant barcode read abundance (log10): 2.06

CCTGGACCTTGGGTTCTAACCTGTTGCGT (site CCTGGGCCTAA)
recombinant barcode read abundance (log10): 0.0265

CCTGGAGCTTGGGTTCTAACCTGTTGCAT (site CCTGGAACTAA)
recombinant barcode read abundance (log10): 0.266

CCTGGAGCTTGGGTTCTAACCTGTTGCAT (site CCTGGAGCTAT)
recombinant barcode read abundance (log10): 0.654

CCTGGCACTTGGGTTCTAACCTGTTGCAG (site CCTGAGACTCT)
recombinant barcode read abundance (log10): 0

CCTGGCACTTGGGTTCTAACCTGTTGCAG (site CCTGGCACTCT)
recombinant barcode read abundance (log10): 1.96

CCTGGGACTTGGGTTCTAACCTGTTGCTA (site ATGATACCTAT)
recombinant barcode read abundance (log10): 0.186

CCTGGGACTTGGGTTCTAACCTGTTGCTA (site CCTGGGACTTA)
recombinant barcode read abundance (log10): 2.03

CCTGGTCCTTGGGTTCTAACCTGTTGCAT (site CCTGGACCTAA)
recombinant barcode read abundance (log10): 0.195

CCTGGTCCTTGGGTTCTAACCTGTTGCAT (site CCTGGTCCTAT)
recombinant barcode read abundance (log10): 1.42

CCTTAGTCTTGGGTTCTAACCTGTTGCAG (site ACATAGTCTCT)
recombinant barcode read abundance (log10): 0.169

CCTTAGTCTTGGGTTCTAACCTGTTGCAG (site CCTTAGTCTCT)
recombinant barcode read abundance (log10): 1.15

CCTTCCACTTGGGTTCTAACCTGTTGCCT (site ACTTCCACTAG)
recombinant barcode read abundance (log10): 0.00909

CCTTCCACTTGGGTTCTAACCTGTTGCCT (site CCTTCCACTAG)
recombinant barcode read abundance (log10): 0.285

CCTTCCACTTGGGTTCTAACCTGTTGCCT (site GCTTCCACTAG)
recombinant barcode read abundance (log10): 0.0418

CCTTCCACTTGGGTTCTAACCTGTTGCCT (site TCTTCCACTAG)
recombinant barcode read abundance (log10): 0.0607

CCTTCCTCTTGGGTTCTAACCTGTTGCCT (site CATTCCTCTAG)
recombinant barcode read abundance (log10): 0.018

CCTTCCTCTTGGGTTCTAACCTGTTGCCT (site CCTTCCTCTAG)
recombinant barcode read abundance (log10): 0.599

CCTTCCTCTTGGGTTCTAACCTGTTGCCT (site CGTTCCTCTAG)
recombinant barcode read abundance (log10): 0.0856

CCTTCCTCTTGGGTTCTAACCTGTTGCCT (site CTTTCCTCTAG)
recombinant barcode read abundance (log10): 0

Source: the supplement of paper PMC11208160
